Experimental data from paper PMC11452294, “Periplasmic binding proteins Bug69 and Bug27 from Bordetella pertussis are in vitro high‐affinity quinolinate binders with a potential role in NAD biosynthesis” (FEBS Open Bio, 2024).

Assays:
Bug27 = target: T1, Bug27 (Bordetella pertussis, UniProt Q7W019); assay: intrinsic tryptophan fluorescence quenching titration; format: binding
T1 construct: gene BP0682; mature periplasmic domain, signal peptide omitted, pET28c NcoI/HindIII, C-terminal His tag kept; E. coli BL21(DE3); denatured and renatured to remove endogenous ligands
T1 sequence (Q7W019 30-330): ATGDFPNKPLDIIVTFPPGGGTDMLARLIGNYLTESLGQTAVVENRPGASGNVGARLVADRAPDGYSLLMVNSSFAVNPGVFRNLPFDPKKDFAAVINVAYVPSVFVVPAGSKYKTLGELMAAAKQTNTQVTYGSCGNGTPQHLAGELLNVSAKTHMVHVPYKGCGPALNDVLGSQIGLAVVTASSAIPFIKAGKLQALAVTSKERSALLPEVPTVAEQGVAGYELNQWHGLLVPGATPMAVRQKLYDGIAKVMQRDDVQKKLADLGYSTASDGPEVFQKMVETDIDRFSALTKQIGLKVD

Bug69 = target: T2, Bug69 (Bordetella pertussis, UniProt Q7VUA0); assay: as above; format: binding; conditions: 20 °C; 0.1 μM protein; excitation 295 nm, fit at 328 nm
T2 construct: gene BP3219; mature periplasmic domain, signal peptide omitted, pET28c NcoI/XhoI, C-terminal His tag kept; E. coli BL21(DE3); denatured and renatured to remove endogenous ligands
T2 sequence (Q7VUA0 32-332): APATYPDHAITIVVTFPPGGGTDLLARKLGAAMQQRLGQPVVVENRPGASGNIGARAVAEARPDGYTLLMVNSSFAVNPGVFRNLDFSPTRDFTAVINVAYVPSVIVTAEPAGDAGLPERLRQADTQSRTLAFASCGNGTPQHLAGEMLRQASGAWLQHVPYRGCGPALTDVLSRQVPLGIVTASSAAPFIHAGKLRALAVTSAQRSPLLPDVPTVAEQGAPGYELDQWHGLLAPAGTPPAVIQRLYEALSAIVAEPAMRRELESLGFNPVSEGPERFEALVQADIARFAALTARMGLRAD

O=C(O)c1cccnc1C(=O)O [quinolinate]
Kd (Bug27): 136 ± 28 nM
Kd (Bug69): 70 ± 22 nM
